Source: US20250186403A1 (ARIZONA BOARD OF REGENTS ON BEHALF OF THE UNIVERSITY OF …, priority 2022, published 2025)

Columns and labels:
[1] = test system: recombinant Cne-Prp8 intein; assay: Thermal shift assay; assay type: binding, Cryptococcus neoformans
Description: The Tm values were calculated by Thermal shift software. […] The assay was repeated three times. […]
Each treatment was done in quadruplicate. The mixture was incubated at room temperature for an hour before transferring to the QuantStudio 5 real-time PCR system (Applied Biosystems) and run with an increasing temperature from 20° C. to 90° C. The temperature at which there was 50% of the peak fluorescence (50% denaturation) was considered as Tm. The analysis was done using the Thermal Shift Assay software (Thermo Fischer Scientific). A graph was drawn using the GraphPad prism Version 9.1.0 after normalizing the fluorescent values. The treatment groups were compared with Student's t-test.

Pharmacokinetics in mice = assay type: in vivo; settings: 40 mg/kg BW oral gavage, male C57BL/6 mice, plasma
Description: Blood samples were collected at 0, 0.5, 1, 2, 4, 8, 12, 16, 24, and 36 h after oral gavage. […] Other PK parameters are in Table 4. The values represent means±SD. […] On day 0, mice were infected with H99 (10^7 cells/mice) intranasally or mock-infected with PBS. Mice were euthanized on day 5, and lungs were dissected out, homogenized in RPMI-1640-MOPS media, and plated onto Sabouraud dextrose agar plates containing antibiotics. Plates were incubated at 30° C. for 72 h, and colonies were counted. […] VC: Vehicle control, (90% corn oil, 10% DMSO). Dpi: Days post-infection. CFU: Colony-forming units.
Pharmacokinetics in mice: C57BL/6 mice (male, 2-3 months old) were obtained from breeding stocks maintained at the University of Arizona. All mice were housed under conditions of controlled temperature (22° C.) with the on-off light cycle, food, and water provided ad libitum and were fasted for 12 h before administration of the compound. […] Blood samples were collected from the tail vein using heparinized capillary tubes at 0, 0.5, 1, 2, 4, 8, 12, 16, 24, and 36 h after oral gavage. Plasma was separated and stored at −30° C. until use. For extraction of the compound, 5 μl of plasma from each mouse were mixed with 30 μL methanol and 10 μl of internal standard (IS; UAWJ102 50 ng/ml). The mixture was vortexed for 30 seconds and diluted with 760 µL Milli Q water, and loaded onto an ISOLUTER C18 SPE Columns (1 ml/100 mg, Biotage, Salem, NH) pre-conditioned with 1 ml methanol followed by 1 ml water, and the cartridge was then washed with 1 ml water. The analytes were finally eluted from the cartridges with 1 ml methanol containing 5% ammonia solution, dried with nitrogen, and reconstituted in 100 μl methanol.
The analyte was detected and quantified using LC-MS (Agilent 1290 UPLC system Agilent Technologies, Santa Clara, CA) and a Sciex Qtrap6500+ Mass Spectrometer (AB SCIEX, Framingham, MA). Analytes were separated on an EclipsePlus C18 column (2.1×50 mm, 1.8 μm, Agilent) at a temperature of 35° C., with mobile phase A containing 0.1% formic acid (v/v) in water and mobile phase B containing 0.1% formic acid (v/v) in methanol. Elution was at a flow rate of 0.2 mL/min as follows: 10% B (0-0.5 min), 10% B→95% B (0.5-3.5 min), 95% B (3.5-7 min), […] (7-7.1 min), 10% B (7.1-10 min). The MS was operated in the positive ion mode, using electrospray ionization. The ion spray voltage and temperature were set at 5000 V and 500° C., respectively. Curtain gas, ion source gas 1, and ion source gas 2 were set at 25, 50, 50 psi, respectively.

[2] = test system: Prp8 intein splicing in Cne-WT; assay: Western blot, in vivo Prp8 intein splicing in Cne; assay type: cell-based, Cryptococcus neoformans; settings: Cne-WT incubated with CMN 18 h
Description: TCEP is added to a final concentration of 100 µM and incubated for 24 h. The substrate Nano-Glo luciferase (Promega) was added, and the resulting luminescence was read. IC50 was calculated using GraphPad prism. […] TCEP was added to a concentration of 1 mM and incubated for 24 h. From this reaction mixture, 10 μl was mixed with an equal volume of 2×SDA-PAGE loading dye and loaded onto 12% SDS-PAGE gel without boiling the sample. The gel was scanned with UV using Chemidoc (Bio Rad), and band intensities were quantified using Image Lab software. […] Cells were harvested and washed in PBS, lysed with bead lyser, and centrifuged at 10,000 rpm. An equal quantity of protein (50 μg) from each treatment was loaded onto 12% SDS-PAGE and blotted onto the NC membrane, blocked with 5% skimmed milk. The membrane was probed with anti-prp8 intein rabbit polyclonal sera, followed by goat anti-rabbit HRP antibody. Signals were developed using a chemiluminescent kit. The density of the spliced intein bands (˜20 kDa) were quantified using Image lab software. A band at ˜130 kDa is uncharacterized, as explained below. NC: nitrocellulose. Abs: absorbance
DMSO was used as a control. An equal volume of freshly grown Cne-WT culture (0.2 OD at 600 nm) was added to obtain the final absorbance of 0.1 OD. […] Intensities of bands were quantified by image lab software and compared with that of control.

A. fumigatus = assay: MIC by microdilution method (resazurin); assay type: cell-based; settings: Aspergillus fumigatus
Description: Serial double dilution of the CMN was done in the RPMI-MOPS medium. Freshly grown fungal culture from the SD agar plate was resuspended in sterile water and diluted to get 0.1 OD at 600 nm. […] The plates were incubated at 30° C. for 48 h. Plates were checked for growth by visual observation. For Afu, resazurin was added to 44 µM and incubated for 12 h at 37° C. before noting a change in color from blue to pink by live cells. MIC is defined as the minimum concentration at which there is no growth when observed visually.

Compound: CNc1ccc2oc(C[C@H]3O[C@@]4(CC[C@H]3C)O[C@H]([C@H](C)C(=O)c3ccc[nH]3)[C@H](C)C[C@H]4C)nc2c1C(=O)O [CMN, calcimycin]
- ΔTm difference between CMN and DMSO ([1]; 1.2 µM CMN): 3 °C
- Tm of CnePrp8 intein ([1]; with 1.2 µM CMN (DMSO control 50.8±0.2)): 53.8±0.2 °C
- t½ (Pharmacokinetics in mice; mean ± S.D. n = 5): 7.2 h
- Tmax (Pharmacokinetics in mice; male, C57BL/6, mouse, po, 40 mg/kg, mean ± S.D. n = 5): ~10 h
- half-life (Pharmacokinetics in mice; male, C57BL/6, mouse, po, 40 mg/kg, mean ± S.D. n = 5, read-out: t½ (converted)): 7.6 h
- Cmax (Pharmacokinetics in mice; mouse, mean ± S.D. n = 5): 301 ng/mL
- spliced intein (approximately 20 kDa) in western blot [2]: dose-dependent reduction in spliced intein
- MIC (A. fumigatus): > 50 µM
